# Where two headings read alike, the source gives them in different places.
# What was measured:
# M. furfur = experiment: Agar dilution test on mDixon agar, minimal inhibitory concentration (MIC); format: cell-based; settings: Malassezia furfur, agar dilution, pH 5.5, 32° C., up to 14 days, read-out: Minimal inhibitory concentration (MIC)
# Description: (§1) The fatty acid esters and their mixtures were tested for growth inhibition against Malassezia. The following reference strains were included:
# (§2) Tests were performed on solid media using agar dilution tests. Stock solutions of test substances were prepared in mDixon-Agar (cf. Table 2). Lower test concentrations were obtained by diluting stock solutions with fresh agar.
# (§3) Preparation of liquid agar was carried out in temperated water bath. Required amounts of test substances were weighed in 130 ml of Dixon Agar and mixed with fresh Dixon-Agar to reach desired concentrations of test substances. Agar solutions with test substances were then poured into 24 well-plates. The pH value in all assays was maintained at 5.5. Preparation of test substances was done on weight per volume base. All results are expressed in parts per million (1 ppm=0.0001%).
# (§4) Briefly, Malassezia strains were cultivated on selective agar for pathogenic fungi (Merck) and overlaid with a thin layer of cold-sterilized olive oil. […] Incubation was carried out at 32° C. over a maximal duration of 14 days with regular inspection and documentation of growth status. Minimal inhibitory concentrations (MICs) were determined as the lowest concentrations of test compound without visible growth. Each experiment was repeated to confirm results.
# M. globosa = experiment: as above; format: cell-based; settings: Malassezia globosa, agar dilution, pH 5.5, 32° C., up to 14 days, read-out: Minimal inhibitory concentration (MIC)
# Description: as §1, §2, §3, §4
# M. pachydermatis = experiment: as above; format: cell-based; settings: Malassezia pachydermatis, agar dilution, pH 5.5, 32° C., up to 14 days, read-out: Minimal inhibitory concentration (MIC)
# Description: as §1, §2, §3, §4
# M. restricta = experiment: as above; format: cell-based; settings: 336 h; M. restricta CBS 7877; agar dilution, pH 5.5, 32° C., up to 14 days; read-out: Minimal inhibitory concentration (MIC)
# Description: as §1, §2, §3, §4
# M. sympodialis = experiment: as above; format: cell-based; settings: 336 h, up to 14 days, read-out: Minimal inhibitory concentration (MIC)
# Description: as §1, §2, §3, §4
# M. globosa CBS 7705 = experiment: Ester cleavage by Malassezia cells, GC quantification; format: cell-based; settings: 32° C.
# Description: (§5) These two species are the most frequently detected ones on human scalp and skin and their hydrolytic/lipolytic activities on fatty acid esters has not yet been investigated before.
# (§6) Malassezia strains were cultivated on selective agar for pathogenic fungi (Merck) and overlaid with a thin layer of cold-sterilized olive oil. After 3 to 5 days, fungal cells were harvested and resuspended in the respective test substance. Cell numbers were determined using a Neubauer counting chamber (cf. Table 12). Sterile Petri dishes (diameter: 3 cm) were prepared containing selective agar for pathogenic fungi, overlaid with 100 μl of the test suspensions and incubated at 32° C.
# (§7) After defined incubation times (0, 3, 6, 12, 24, 48, and 72 h), test suspensions were removed from the agar surface by rinsing with 1 ml chloroform and stored under cool conditions in gastight tubes until analysis. Chloroform was removed by evaporation at 30° C. in the fume hood and the remaining liquid mixed with 1 ml isopropanol, transferred in Eppendorf tubes and centrifuged. The supernatant was transferred to new Eppendorf tubes.
# (§8) In order to analytically quantify esters and free fatty acid resulting from cleavage by Malassezia enzymes, gas chromatography was used.
# (§9) For quantification (range 0.1-10 wt %) a multilevel calibration method with internal standard (ISTD, docosane [C22]; 500 mg in MtBE) was used. An equal amount of corresponding acid, ester and possible side products [0.2-50 mg/10 mL] were mixed with ISTD, diluted to an appropriate concentration and 1 μL [split1:50] was directly used for GC-analysis with the following conditions: GC Agilent 6890 with a 20 m ZB-Wax column [0.20 mm×0.20 μm], injector temperature of 250° C., detector temperature of 275° C., flow gas of 1.3 mL/min hydrogen [constant]. For temperature profile 60° C. to 240° C. with a heating rate of 9° C./min was used.
# M. restricta CBS 7877 = experiment: as above; format: cell-based; settings: 32° C.
# Description: as §5, §6, §7, §8, §9
# [1] = Ester cleavage assays without Malassezia cells; format: physicochemical; settings: until the end of the experiment after 72 hours
# Description: as §6, §7, §8
# For quantification (range 0.1-10 wt %) a multilevel calibration method with internal standard (ISTD, docosane [C22]; 500 mg in MtBE) was used. […]
# [2] = CBS1878, 336 h, M. furfur CBS 1878
# [3] = CBS7019, 336 h, M. furfur CBS 7019
# [4] = CBS7705, 336 h, M. globosa CBS 7705
# [5] = CBS7966, 336 h, M. globosa CBS 7966
# [6] = CBS1879, 336 h, M. pachydermatis CBS 1879
# [7] = pH 5.5, M. sympodialis ATCC 42132, pH 5.5, 32° C.
# [8] = pH 5.5, M. sympodialis CBS 7222, pH 5.5, 32° C.
# [9] = pH 5.5, M. sympodialis CBS 7979, pH 5.5, 32° C.
# [10] = pH 5.5, M. sympodialis DSM 6171, pH 5.5, 32° C.
# [11] = M. globosa CBS 7705, after 6 hours
# [12] = M. globosa CBS 7705, after 12 hours
# [13] = M. restricta CBS 7877, after 6 hours
# [14] = M. restricta CBS 7877, after 12 hours
smiles,measurement,setting,value
C=CCCCCCCCCC(=O)OCCCO [3-Hydroxypropyl undecylenoate],MIC,M. furfur; [2],8000 µg/mL
same,MIC,M. furfur; [3],8000 µg/mL
same,MIC,"M. globosa; 336 h, M. globosa PM1",2000 µg/mL
same,MIC,M. globosa; [4],1000 µg/mL
same,MIC,M. globosa; [5],2000 µg/mL
same,MIC,"M. pachydermatis; 336 h, M. pachydermatis 1892",1000 µg/mL
same,MIC,M. pachydermatis; [6],2000 µg/mL
same,MIC,M. restricta,1000 µg/mL
same,MIC,M. sympodialis; [7],2000 µg/mL
same,MIC,M. sympodialis; [8],4000 µg/mL
same,MIC,M. sympodialis; [9],1000 µg/mL
same,MIC,M. sympodialis; [10],2000 µg/mL
same,ester cleaved,M. globosa CBS 7705; [11],95%
same,ester cleaved,M. globosa CBS 7705; [12],99.5%
same,ester cleaved,M. restricta CBS 7877; [13],56%
same,ester cleaved,M. restricta CBS 7877; [14],96%
same,free fatty acid detected in assays without Malassezia cells,[1],no undecylenic acid was detected
CCCCCCCC(=O)OCCCO [3-Hydroxypropyl caprylate],MIC,M. furfur; [2],2000 µg/mL
same,MIC,M. furfur; [3],2000 µg/mL
same,MIC,"M. globosa; 336 h, M. globosa PM1",500 µg/mL
same,MIC,M. globosa; [4],1000 µg/mL
same,MIC,M. globosa; [5],1000 µg/mL
same,MIC,"M. pachydermatis; 336 h, M. pachydermatis 1892",500 µg/mL
same,MIC,M. pachydermatis; [6],330 µg/mL
same,MIC,M. restricta,1000 µg/mL
same,MIC,M. sympodialis; [7],1000 µg/mL
same,MIC,M. sympodialis; [8],1000 µg/mL
same,MIC,M. sympodialis; [9],2000 µg/mL
same,MIC,M. sympodialis; [10],2000 µg/mL
same,ester cleaved,M. globosa CBS 7705; [11],75%
same,ester cleaved,M. globosa CBS 7705; [12],90%
same,ester cleaved,M. restricta CBS 7877; [13],21%
same,ester cleaved,M. restricta CBS 7877; [14],65%
same,free fatty acid detected in assays without Malassezia cells,[1],no caprylic acid was detected

# Source: patent US12274775B2, “Fatty acid esters as anti-Malassezia agents” (SYMRISE AG, priority 2019, dated 2025)
